Series [1] can be described thus: Plasma concentration of teverelix in patients versus weight. Type of series: in vivo. The note with it: different patients.
Series [2] is described as follows: Injection site reaction after subcutaneous and/or intramuscular injection. The series is classed as in vivo. The note with it: 30-100 mg/ml, 0.4-1.6 ml.

Square brackets hold non-standard residues; d marks the D form. Peptide text beside a SMILES is read from it. dPhe(4-Cl) = N[C@H](Cc1ccc(Cl)cc1)C(=O)O; d2Nal = N[C@H](Cc1ccc2ccccc2c1)C(=O)O; d(hCit) = NC(=O)NCCCC[C@@H](N)C(=O)O; Lys(iPr) = CC(C)NCCCC[C@H](N)C(=O)O; d3Pal = N[C@H](Cc1cccnc1)C(=O)O

Turning to `CC(=O)N[C@H](Cc1ccc2ccccc2c1)C(=O)N[C@H](Cc1ccc(Cl)cc1)C(=O)N[C@H](Cc1cccnc1)C(=O)N[C@@H](CO)C(=O)N[C@@H](Cc1ccc(O)cc1)C(=O)N[C@H](CCCCNC(N)=O)C(=O)N[C@@H](CC(C)C)C(=O)N[C@@H](CCCCNC(C)C)C(=O)N1CCC[C@H]1C(=O)N[C@H](C)C(N)=O` [teverelix, Ac-D-Nal-D-pClPhe-D-Pal-Ser-Tyr-D-Hci-Leu-Lys (iPr)-Pro-D-Ala-NH2] (Ac-[d2Nal][dPhe(4-Cl)][d3Pal]SY[d(hCit)]L[Lys(iPr)]P[dA]-NH2), the “dependence of plasma concentration of teverelix on patients weight” value in series [1] is given as “substantially independent of the patients weight”. The injection site reaction result in series [2] was “mild injection site reaction”.

The values above are taken from US12458680B2, “Reconstitutable teverelix-TFA composition” (Antev Limited, priority 2018, dated 2025).
